Test results reported in publication PMC2358886, “Evolution of pharmacologic specificity in the pregnane X receptor” (BMC Evolutionary Biology, 2008).
Like-named read-outs stand apart in the source and are kept apart here.

Key:
[1] = biological target: T1, human PXR (Homo sapiens, UniProt O75469); conditions: for hPXR Efficacy: human
T1 sequence (O75469 1-434): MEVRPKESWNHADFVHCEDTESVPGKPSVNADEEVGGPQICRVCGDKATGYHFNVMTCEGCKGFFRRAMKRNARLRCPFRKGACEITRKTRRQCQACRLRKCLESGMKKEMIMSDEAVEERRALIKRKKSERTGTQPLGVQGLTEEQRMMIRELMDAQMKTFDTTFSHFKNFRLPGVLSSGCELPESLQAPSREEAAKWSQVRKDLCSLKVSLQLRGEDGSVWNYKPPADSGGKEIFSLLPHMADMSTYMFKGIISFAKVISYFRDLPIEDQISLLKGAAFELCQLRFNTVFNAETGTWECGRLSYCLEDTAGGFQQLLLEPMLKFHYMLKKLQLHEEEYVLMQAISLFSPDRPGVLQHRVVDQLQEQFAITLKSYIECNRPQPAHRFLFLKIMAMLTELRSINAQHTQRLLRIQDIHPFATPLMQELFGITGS

[2] = system: HepG2 cells
[3] = biological target: T1, human PXR; assay: PXR activation luciferase reporter assay, human PXR in HepG2-NTCP cells; conditions: for hPXR Efficacy: relative to 10 μM rifampicin, assigned an efficacy of 1.0
[4] = biological target: T2, zebrafish PXR (Danio rerio, UniProt A5WYG8)
T2 sequence (A5WYG8 144-430): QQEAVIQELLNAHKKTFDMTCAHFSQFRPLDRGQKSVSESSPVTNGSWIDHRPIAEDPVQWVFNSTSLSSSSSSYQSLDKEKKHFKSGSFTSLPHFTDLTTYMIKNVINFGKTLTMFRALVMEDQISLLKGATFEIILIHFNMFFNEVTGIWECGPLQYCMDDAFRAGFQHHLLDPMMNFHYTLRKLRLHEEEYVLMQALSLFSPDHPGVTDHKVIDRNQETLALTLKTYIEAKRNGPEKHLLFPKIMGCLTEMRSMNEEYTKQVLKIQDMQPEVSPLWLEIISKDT

[5] = -log(EC50), EC50 in molar units, activation of human PXR
[6] = -log(EC50), EC50 in molar units, activation of zebrafish PXR
[7] = Human PXR EC50 (concentration class, Figure 2A), class read from box colour against the key of Figure 2
[8] = hPXR Activity, -log(EC50), EC50 in molar units, activation of human PXR

| Structure (SMILES) | Toxicity [2] | zfPXR Activity [4, 6] | EC50 [3, 8] | Toxicity ([2]; human, 24 hr) | also measured |
| --- | --- | --- | --- | --- | --- |
| C[C@]12CCC(=O)C[C@@H]1CC[C@@H]1[C@@H]2CC[C@]2(C)C(=O)CC[C@@H]12 [AN2, 5α-Androstan-3,17-dione] | None | – | – | – | hPXR Efficacy [1]: 0.87 |
| C[C@]12CC[C@H]3[C@@H](CCC4=CC(=O)CC[C@@]43C)[C@@H]1CC[C@@H]2O [AN8, 4-Androsten-17β-ol-3-one] | None | – | – | – | hPXR Efficacy [1]: 0.22 |
| C[C@]12CC[C@H]3[C@@H](CCC4=CC(=O)CC[C@@]43C)[C@@H]1CC[C@H]2O [AN15, 4-Androsten-17α-ol-3-one] | None | – | – | – | hPXR Efficacy [1]: 0.9 |
| C[C@]12CC[C@@H](O[C@@H]3O[C@H](C(=O)O)[C@@H](O)[C@H](O)[C@H]3O)C[C@H]1CC[C@@H]1[C@@H]2CC[C@]2(C)C(=O)CC[C@@H]12 [AN18, 5β-Androstan-3α-glucosiduronate-17-one] | None | None | – | – | hPXR Activity [3, 5]: None |
| C[C@H](CCC(=O)O)[C@H]1CC[C@H]2[C@@H]3CC[C@@H]4C[C@H](OS(=O)(=O)O)CC[C@]4(C)[C@H]3CC[C@]12C [BI41, 5β-Cholanic acid-3α-sulfate] | None | 4.61 | – | – | hPXR Activity [3, 5]: 3.93 |
| CC(=O)O[C@@H]1CC[C@@]2(C)[C@H](CC[C@@H]3[C@@H]2CC[C@]2(C)[C@@H]([C@H](C)CCC(=O)O)CC[C@@H]32)C1 [BI49, 5β-Cholanic acid-3α-acetate] | None | 5.89 | – | – | hPXR Activity [3, 5]: 5.92; hPXR Efficacy [3]: 0.54 |
| COC(=O)CC[C@@H](C)[C@H]1CC[C@H]2[C@@H]3CC[C@@H]4C[C@H](OC(C)=O)CC[C@]4(C)[C@H]3CC[C@]12C [BI50, 5β-Cholanic acid-3α-acetate methyl ester] | None | None | – | – | hPXR Activity [3, 5]: 5.96 |
| CC(C)CCC[C@@H](C)[C@H]1CC[C@H]2[C@@H]3CC=C4C[C@@H](O)CC[C@]4(C)[C@H]3CC[C@]12C [Cholesterol] | – | – | – | – | Human PXR EC50 (concentration class, Figure 2A) [1]: Inactive |
| C[C@]12CC[C@@H]3c4ccc(O)cc4CC[C@H]3[C@@H]1CC[C@@H]2O [ES1, 1,3,5(10)-Estratrien-3,17β-diol] | – | None | 15.8 µM | 200 µM | EC50 [3, 7]: 11 to 50 µM |
| C[C@]12CC[C@@H]3c4ccc(O)cc4CC[C@H]3[C@@H]1CCC2=O [ES2, 1,3,5(10)-Estratrien-3-ol-17-one] | – | – | – | 200 µM | – |
| C[C@]12CC[C@@H]3c4ccc(OC5O[C@H](C(=O)O)[C@@H](O)[C@H](O)[C@H]5O)cc4CC[C@H]3[C@@H]1CC[C@@H]2O (stereo partly drawn) [ES9, 1,3,5(10)-Estratrien-17β-ol-3-glucosiduronate] | None | None | – | – | hPXR Activity [3, 5]: None |
| CC(=O)Nc1ccc(O)cc1 [MI1, Acetaminophen] | None | – | – | – | – |
| Cn1c(=O)c2c(ncn2C)n(C)c1=O [MI6, Caffeine] | – | – | – | – | hPXR Activity [1]: None |
| CC1=C(/C=C/C(C)=C/C=C/C(C)=C/C=C/C=C(C)/C=C/C=C(C)/C=C/C2=C(C)CCCC2(C)C)C(C)(C)CCC1 [MI9, β-Carotene] | – | None | 3.47 µM | 100 µM | – |
| C[C@H]([C@H](O)CCC(C)(C)O)[C@H]1CC[C@@]2(O)C3=CC(=O)[C@@H]4C[C@@H](O)[C@@H](O)C[C@]4(C)[C@H]3CC[C@]12C [MI13, Ecdysone] | None | None | – | – | hPXR Activity [3, 5]: None |
| CCOC(=O)c1ccccc1N [MI14, Ethyl-2-aminobenzoate] | – | None | – | – | hPXR Activity [3, 5]: None |
| Nc1nc2ncc(CNc3ccc(C(=O)N[C@@H](CCC(=O)O)C(=O)O)cc3)nc2c(=O)[nH]1 [MI16, Folic acid] | None | – | – | – | zfPXR Activity [4]: None |
| C/C=C1\C(=O)C[C@H]2[C@@H]3CCC4=CC(=O)CC[C@]4(C)[C@H]3CC[C@]12C [MI17, Guggulsterone] | None | – | – | – | zfPXR Activity [4]: None |

| Structure (SMILES) | Toxicity [2] | zfPXR Activity [4, 6] | EC50 [3, 8] | Toxicity ([2]; human, 24 hr) | also measured |
| --- | --- | --- | --- | --- | --- |
| CC[C@H](C)C(=O)O[C@H]1CCC=C2C=C[C@H](C)[C@H](CC[C@@H]3C[C@@H](O)CC(=O)O3)[C@H]21 [MI20, Mevastatin] | – | None | 5.89 µM | 15 µM | – |
| CC(=O)O[C@H]1C(=O)[C@@]2(C)[C@H]([C@H](OC(=O)c3ccccc3)[C@]3(O)C[C@H](OC(=O)[C@H](O)[C@@H](NC(=O)c4ccccc4)c4ccccc4)C(C)=C1C3(C)C)[C@]1(OC(C)=O)CO[C@@H]1C[C@@H]2O [MI24, Paclitaxel] | – | – | 12 µM | 100 µM | zfPXR Activity [4]: None |
| COC(=O)[C@H]1[C@H]2C[C@@H]3c4[nH]c5cc(OC)ccc5c4CCN3C[C@H]2C[C@@H](OC(=O)c2cc(OC)c(OC)c(OC)c2)[C@@H]1OC [MI30, Reserpine] | – | – | – | 50 µM | – |
| CO[C@H]1/C=C/O[C@@]2(C)Oc3c(C)c(O)c4c(O)c(c(/C=N/N5CCN(C)CC5)c(O)c4c3C2=O)NC(=O)/C(C)=C\C=C\[C@H](C)[C@H](O)[C@@H](C)[C@@H](O)[C@@H](C)[C@H](OC(C)=O)[C@@H]1C [MI32, Rifampicin] | – | None | – | 200 µM | – |
| CCOP(=O)(OCC)C(=Cc1cc(C(C)(C)C)c(O)c(C(C)(C)C)c1)P(=O)(OCC)OCC [MI33, SR12813] | 10 µM | None | – | – | – |
| Cc1c(C)c2c(c(C)c1O)CC[C@@](C)(CCC[C@H](C)CCC[C@H](C)CCCC(C)C)O2 [MI37, α-Tocopherol] | – | – | ~50.1 µM | 100 µM | zfPXR Activity [4]: None |
| C=C1/C(=C\C=C2/CCC[C@]3(C)[C@@H]([C@H](C)CCCC(C)(C)O)CC[C@@H]23)C[C@@H](O)C[C@@H]1O [MI41, 1α,25-Dihydroxyvitamin D3] | – | – | – | 50 µM | – |
| C=C1/C(=C\C=C2/CCC[C@]3(C)[C@@H]([C@H](C)CCCC(C)C)CC[C@@H]23)C[C@@H](O)C[C@@H]1O [MI43, 1α-Hydroxyvitamin D3] | – | None | – | 50 µM | – |
| CC1=C(C/C=C(\C)CCC[C@H](C)CCC[C@H](C)CCCC(C)C)C(=O)c2ccccc2C1=O [MI44, Vitamin K1] | – | None | 10.2 µM | 100 µM | – |
| C[C@]12C[C@H](O)[C@H]3[C@@H](CCC4=CC(=O)CC[C@@]43C)[C@@H]1CC[C@@H]2C(=O)CO [PR3, 4-Pregnen-11β,21-diol-3,20-dione] | None | – | 10 µM | – | EC50 [3, 7]: < 10 µM; Zebrafish PXR EC50 (concentration class, Figure 2B) [4]: Inactive; zfPXR Activity [4]: None |
| C[C@]12CCC(=O)C=C1CC[C@@H]1[C@@H]2CC[C@@]2(C)[C@H]1CC[C@]2(O)C(=O)CO [PR4, 4-Pregnen-17,21-diol-3,20-dione] | None | None | 22.9 µM | – | EC50 [3, 7]: 11 to 50 µM |
| C[C@]12CCC(=O)C=C1CC[C@@H]1[C@@H]2[C@@H](O)C[C@]2(C=O)[C@@H](C(=O)CO)CC[C@@H]12 [PR5, 4-Pregnen-11β,21-diol-3,18,20-trione] | None | None | 55 µM | – | EC50 [3, 7]: 51 to 200 µM |
| C[C@]12CCC(=O)C=C1CC[C@@H]1[C@@H]2C(=O)C[C@@]2(C)[C@H]1CC[C@]2(O)C(=O)CO [PR6, 4-Pregnen-17,21-diol-3,11,20-trione] | – | – | 69.2 µM | 200 µM | EC50 [3, 7]: 51 to 200 µM; Zebrafish PXR EC50 (concentration class, Figure 2B) [4]: Inactive; zfPXR Activity [4]: None |
| CC(=O)[C@H]1CC[C@H]2[C@@H]3CCC4=CC(=O)CC[C@]4(C)[C@H]3CC[C@]12C [PR7, 4-Pregnen-3,20-dione] | – | None | 14.8 µM | 200 µM | EC50 [3, 7]: 11 to 50 µM |
| CC(=O)[C@@]1(O)CC[C@H]2[C@@H]3CCC4=CC(=O)CC[C@]4(C)[C@H]3CC[C@@]21C [PR8, 4-Pregnen-17-ol-3,20-dione] | – | – | – | – | Toxicity ([2]; human): None |
| CC(=O)[C@H]1CC[C@H]2[C@@H]3CC=C4C[C@@H](O)CC[C@]4(C)[C@H]3CC[C@]12C [PR12, 5-Pregnen-3β-diol-20-one] | None | 6.32 | – | – | hPXR Activity [3, 5]: 5.64; hPXR Efficacy [3]: 1.26; zfPXR Efficacy ([4]; relative to 20 μM 5α-androstan-3α-ol, assigned an efficacy of 1.0): 2.05 |
| C[C@@H]1C[C@H]2[C@@H]3CCC4=CC(=O)C=C[C@]4(C)[C@@]3(F)[C@@H](O)C[C@]2(C)[C@@]1(O)C(=O)CO [PR29, 1,4-Pregnadien-9α-fluoro-16α-methyl-11β,17,21-triol-3,20-dione] | None | – | – | – | EC50 ([3]; hPXR Activity): 40.7 µM; zfPXR Activity [4]: None |
